Test results: patent US10471059B2, “Compositions and methods of using tyrosine kinase inhibitors” (YALE UNIVERSITY, priority 2015, dated 2019)
Entries after “also recorded” stand apart in the source; their conditions may differ. Read-outs that look alike come from different tables or passages of the source. Marks after values point to notes of the source that are not given here.

Key:
[1] = cited from earlier work
[2] = tested on: WT and Ptpn11^D61G/+ mice; experiment: Invasive hemodynamic study, postnatal dasatinib treatment; format: in vivo
Method: Vehicle-injected mice served as control.
Hemodynamic Study—Anesthesia was induced by intraperitoneal injection of ketamine (100 mg/kg) and xylazine (5 mg/kg). The animal was placed on a warm pad and an incision was made on the neck. The right side carotid artery was exposed and a 1.9-French transducer-tipped catheter (Millar Inc., Houston, Tex.) was inserted into the artery, and then was advanced into left ventricle. Left ventricular pressures including high-fidelity positive, negative dp/dt and heart rate were measured under basal conditions. Data were recorded and analyzed by using LabChart software.

Ptpn11^D61G/+ mice = experiment: Quantitative RT-PCR of heart RNA, NS mice, postnatal dasatinib; format: in vivo; details: P56
Method: FIG. 15, comprising FIG. 15a-15j, is a panel of images showing cardiomyopathy and cardiac fibrosis in Ptpn11^D61G/+ mice rescued by dasatinib. […] FIG. 15e is a graph showing relative expression of fibrosis marker gene, Col1a2. […] FIG. 15f is a graph showing relative expression of fibrosis marker gene, Col3a1. FIG. 15g is a graph showing relative expression of cardiac fetal gene, Myh6 (αMHC). FIG. 15h is a graph showing relative expression of cardiac fetal gene, Myh7 (βMHC). FIG. 15i is a graph showing relative expression of cardiac fetal gene, Anf. FIG. 15j is a graph showing relative expression of cardiac fetal gene, Bnp. The genes were measured by quantitative RT-PCR (n=6 for each group). […] (Two-way ANOVA test).
(§1) RNA Extraction and Quantitative Real-Time PCR Analysis—RNA was isolated from mice heart using an RNeasy kit (Qiagen, CA) according to the manufacturer's instructions. A total of 1 μg RNA was reverse transcribed to generate cDNA using a reverse transcriptase PCR kit (Applied Biosystems, CA). Real-time quantitative PCR was carried out in triplicate using the Applied Biosystems 7500 Fast real-time PCR system and SYBR green gene expression master mix with following primer pairs.
All relative gene expression levels were analyzed using the ΔCT method and normalized to 18S rRNA expression.

[3] = tested on: WT and Ptpn11^D61G/+ mice; details: for % EF (ejection fraction) / % FS (fractional shortening) / IVS, d (Intraventricular septum wall thickness, diastole) / IVS, s (Intraventricular septum wall thickness, systole) / LV vol, d (left ventricle volume, diastole) / LV vol, s (left ventricle volume, systole) / LVID, d (left ventricular internal dimension, diastole) / LVID, s (left ventricular internal dimension, systole) / LVPW, d (left ventricular posterior wall thickness, diastole) / LVPW, s (left ventricular posterior wall thickness, systole): n = 8, Mean ± SEM;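 for all read-outs here: echocardiography in isoflurane-anesthetized mice, M-mode tracings averaged over three to six heartbeats, FS derived from diastolic and systolic LVID, vehicle-injected mice as control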
Method: Echocardiographic Studies—Cardiac dimensions and function were analyzed by echocardiography using a Vevo 770 console, Mice were lightly anesthetized with inhaled isoflurane (0.2% in O2). All measurements were obtained from three to six consecutive cardiac cycles, and the averaged values used for analysis. Interventricular septum wall (IVS), left ventricular internal dimension (LVID) and left ventricular posterior wall thickness (LVPW) in both end-diastolic (d), end-systolic (s) were measured from the and M-mode tracings. Diastolic measurements were performed using the leading-edge method of the American Society of Echocardiography. For TM-mode measurements, left ventricular end-diastolic volume (LV vol,d) and end-systolic volume (LV vol,s) were calculated. Ejection fraction percentage (EF) was calculated as [(LVvol,d−LVvol,s)/VLvol,d]×100, and fractional shortening percentage was calculated as [(LVID,d−LVID,s)/LVID,d]×100.
Animal Handling—Ptpn11^D61G/+ mice were provided from Dr. Benjamin Neel (University of Toronto, Toronto) and were genotyped as described previously^9. Briefly, Ptpn11^D61G/+ male mice were crossed with wild type C75BL/6×SV 129 female mice and their offspring were genotyped by PCR and digestion with AgeI for the D61G allele. Dasatinib (Biovision) was suspended in vehicle (1% DMSO in phosphate buffer saline), For prenatal treatment, dasatinib was injected i.p. (0.1 mg/kg body weight) into pregnant mice daily, beginning on gestational day 7.5 (E7.5) continuing (in nursing females) until postnatal day 9. Vehicle-injected mice served as control. Beginning at P10, dasatinib or vehicle alone was injected (i.p.) directly into pups daily, until 8-weeks after birth. For postnatal treatment, dasatinib was injected (i.p.) into pups at P10, until 6-weeks after birth; injection was discontinued for 2-weeks.
Echocardiography—Mice were anesthetized in a sealed plastic chamber with 1% isofurane in oxygen until immobile, and then were transferred onto a heated procedure board (37° C.). Animal were kept anesthetized with 1% isoflurane supplied by a nose cone connected to the isoflurane vaporizer during the entire procedure. The scan head was placed on the chest of the mouse and stable image signals (both B mode and M mode) were acquired and data analyzed with Vevo 770 (VisualSonics). Systolic and distolic left ventricle peripheral wall thickness, chamber diameter and interventricular wall thickness were measured with M mode image. Percentage of ejection fraction (EF) and fractional shortening (FS) were calculated.

Ptpn11^Y279C/+ mice = experiment: Quantitative RT-PCR of heart RNA, NSML mice, postnatal dasatinib; format: in vivo
Method: FIG. 25, comprising FIGS. 25a-25f, is a panel of graphs showing the improvement in molecular markers of cardiomyopathy and fibrosis in NSML (Y279C/+) mice following dasatinib treatment. Total heart RNA was isolated from postnatal vehicle- or dasatinib-treated (0.1 mg/kg/day) WT and Ptpn11^Y279C/+ mice (P42). Fibrosis marker genes, Col1a2 (FIG. 25a) and Col3a1 (FIG. 25b), markers of cardiomyopathy ANP (FIG. 25c) and cardiac fetal genes, Myh6 (αMHC) (FIG. 25d), Myh7 (bMHC) (FIG. 25e), and Myh6/Myh7 ratio (FIG. 25f) were measured by quantitative RT-PCR (n=6 for each group). All data represent mean±SEM. *, p<0.05; **, p<0.01; ***, p<0.001. (Two-way ANOVA test).
as §1
The data presented in FIGS. 25a-25f represents dasatinib treatment starting at post-natal day 10 (P10) for 6 weeks (P42) in wild type (WT) and NSML (Ptpn11^Y279C/+) mice. Ptpn11^Y279C/+ were obtained from Dr. Kontaridis (Beth Israel Deaconess Hospital, Boston, Mass.) and bred as described (Marin, et al, J Clin. Invest., 121:1026-1043(2011)). Mice were treated with either vehicle or dasatinib at a dose of 0.1 mg/kg/day for 6 weeks […]. At the completion of the study, wild type and Ptpn11^Y279C/+ mice were sacrificed and total RNA from the hearts was isolated and qPCR was performed for the detection of mRNA expression for genes involved in the development of cardiomyopathy, Myh6 and Myh7 and the development of cardiac fibrosis, col1a2 and Col3a1.

[4] = Ptpn11D61G/+ mice, P56, n = 9, Mean ± SEM
[5] = WT mice, P56, n = 8, Mean ± SEM
[6] = prenatal 0.1 mg/kg i.p. daily from E7.5, Ptpn11D61G/+ mice, P42
[7] = prenatal 0.1 mg/kg i.p. daily from E7.5, WT mice, P42
[8] = prenatal 0.1 mg/kg i.p. daily from E7.5 continued to P56, Ptpn11D61G/+ mice, P56
[9] = prenatal 0.1 mg/kg i.p. daily from E7.5 continued to P56, WT mice, P56
[10] = postnatal 0.1 mg/kg/day from P10 for 6 weeks, Ptpn11Y279C/+ mice

## Cc1nc(Nc2ncc(C(=O)Nc3c(C)cccc3Cl)s2)cc(N2CCN(CCO)CC2)n1.O [Dasatinib, N-(2-chloro-6-methylphenyl)-2-[[6-[4-(2-hydroxyethyl)-1-piperazinyl]-2-methyl-4-pyrimidinyl]amino]-5-thiazole carboxamide monohydrate]
[1]; humans
  dose of therapeutic effects in humans: ~2 mg/kg
[1]; mice equivalent
  equivalent dose in mice of the human therapeutic dose: ~24 mg/kg
[2]; NS mice, P56
  aortic blood pressure and left ventricular pressure: significantly restored
[2]; [4]
  +dp/dt: 7718 ± 498 mmHg/s
  Diastolic pressure: 84.0 ± 3.5 mmHg
  End diastolic pressure: 11.1 ± 0.7 mmHg
  Left ventricle pressure: 127.9 ± 4.5 mmHg
  Mean arterial pressure: 96.8 ± 4.2 mmHg
  Pulse pressure: 63.7 ± 4.4 mmHg
  Systolic pressure: 129.3 ± 6.2 mmHg
  −dp/dt: −6189 ± 626 mmHg/s
[2]; [5]
  +dp/dt: 8626 ± 476 mmHg/s
  Diastolic pressure: 95.1 ± 4.2 mmHg
  End diastolic pressure: 8.7 ± 1.3 mmHg
  Left ventricle pressure: 136.5 ± 2.5 mmHg
  Mean arterial pressure: 112.1 ± 4.0 mmHg
  Pulse pressure: 65.2 ± 4.6 mmHg
  Systolic pressure: 146.2 ± 5.1 mmHg
  −dp/dt: −6529 ± 847 mmHg/s
Ptpn11^D61G/+ mice
  Anp and Bnp mRNA expression: completely rescued
  MYH6 expression: equivalent level of MYH6 expression in wild type and NS mice
  MYH7 expression: completely normalized
  mRNA expression of fibrotic genes Col1a2 and Col3a1: reduced mRNA expression levels
[3]; [6]
  % EF (ejection fraction): 62.62 ± 2.75 %
  % FS (fractional shortening): 34.29 ± 2.09 %
  IVS, d (Intraventricular septum wall thickness, diastole): 0.65 ± 0.06 mm
  IVS, s (Intraventricular septum wall thickness, systole): 0.97 ± 0.10 mm
  LV vol, d (left ventricle volume, diastole): 60.93 ± 3.75 mm^3
  LV vol, s (left ventricle volume, systole): 24.21 ± 1.56 mm^3
  LVID, d (left ventricular internal dimension, diastole): 3.61 ± 0.12 mm
  LVID, s (left ventricular internal dimension, systole): 2.32 ± 0.12 mm
  LVPW, d (left ventricular posterior wall thickness, diastole): 0.70 ± 0.04 mm
  LVPW, s (left ventricular posterior wall thickness, systole): 1.12 ± 0.07 mm
[3]; [7]
  % EF (ejection fraction): 64.24 ± 2.52%
  % FS (fractional shortening): 34.70 ± 1.82%
  IVS, d (Intraventricular septum wall thickness, diastole): 0.67 ± 0.04 mm
  IVS, s (Intraventricular septum wall thickness, systole): 1.08 ± 0.09 mm
  LV vol, d (left ventricle volume, diastole): 67.51 ± 2.54 mm^3
  LV vol, s (left ventricle volume, systole): 22.26 ± 1.95 mm^3
  LVID, d (left ventricular internal dimension, diastole): 3.93 ± 0.08 mm
  LVID, s (left ventricular internal dimension, systole): 2.49 ± 0.09 mm
  LVPW, d (left ventricular posterior wall thickness, diastole): 0.76 ± 0.05 mm
  LVPW, s (left ventricular posterior wall thickness, systole): 1.13 ± 0.04 mm
[3]; [8]
  % EF (ejection fraction): 51.83 ± 1.60%
  % FS (fractional shortening): 26.22 ± 1.01%
  IVS, d (Intraventricular septum wall thickness, diastole): 0.70 ± 0.03 mm
  IVS, s (Intraventricular septum wall thickness, systole): 1.02 ± 0.05 mm
  LV vol, d (left ventricle volume, diastole): 73.00 ± 3.42 mm^3
  LV vol, s (left ventricle volume, systole): 37.43 ± 2.08 mm^3
  LVID, d (left ventricular internal dimension, diastole): 4.06 ± 0.11 mm
  LVID, s (left ventricular internal dimension, systole): 3.08 ± 0.07 mm
  LVPW, d (left ventricular posterior wall thickness, diastole): 0.68 ± 0.02 mm
  LVPW, s (left ventricular posterior wall thickness, systole): 0.93 ± 0.06 mm
[3]; [9]
  % EF (ejection fraction): 50.96 ± 2.38 %
  % FS (fractional shortening): 25.84 ± 1.47 %
  IVS, d (Intraventricular septum wall thickness, diastole): 0.69 ± 0.04 mm
  IVS, s (Intraventricular septum wall thickness, systole): 1.07 ± 0.05 mm
  LV vol, d (left ventricle volume, diastole): 79.32 ± 1.22 mm^3
  LV vol, s (left ventricle volume, systole): 40.34 ± 1.60*** mm^3
  LVID, d (left ventricular internal dimension, diastole): 4.21 ± 0.07 mm
  LVID, s (left ventricular internal dimension, systole): 3.04 ± 0.10 mm
  LVPW, d (left ventricular posterior wall thickness, diastole): 0.71 ± 0.04 mm
  LVPW, s (left ventricular posterior wall thickness, systole): 0.95 ± 0.05 mm
[3]; prenatal 0.1 mg/kg, NS mice, P42, monohydrate
  cardiac function (EF and FS): improves cardiac function; also recorded: completely restored to wild type parameters; also recorded: complete restoration of cardiac function
[3]; prenatal regimen continued an additional 2 weeks to P56, wild type and NS mice
  cardiac failure on continued administration: induced cardiac failure
Ptpn11^Y279C/+ mice; 0.1 mg/kg/day, NSML (Y279C/+) mice
  molecular markers of cardiomyopathy and fibrosis: improvement
Ptpn11^Y279C/+ mice; [10]
  expression of ANP, Myh6 and Myh7: complete restoration back to wild type levels
  ratio of Myh6/Myh7: restored to wild type levels
